Source: patent publication US20060135623A1, “Decrease in oxidative stress status through the administration of natural products and pharmaceutical drugs” (priority 2004, published 2006)

Experiments:
C. elegans [1] = assay: Survival (life expectancy and lifespan) of C. elegans in liquid culture; type: in vivo; settings: for life expectancy / lifespan: liquid culture, 25 degrees Celsius; for life expectancy: control 19 days; for lifespan: control 28 days
Procedure: The effect of geranylacetone (GA) and geranylgeranyl acetone (GGA) on the lengthening of lifespan and life expectancy was studied using the model organism, C. elegans, a system that is commonly used to study aging. GA and GGA were tested at three different concentrations of 5 μM 50 μM and 500 μM. The drugs were dissolved in ethanol, and thus ethanol with no drug present was used as the control in these experiments. 100 worms were used to test each concentration of the drug. GA is assumed to be a pure drug at 4.3 M and was dissolved in 100% ethanol. The drug was then diluted in S basal plus cholesterol plus bacteria OP50 such that the final concentration of ethanol on all plates was 1%. GGA was treated as 10% active with an inert carrier. Thus, all treatments were done with a 10-fold increase over the calculated concentration. GGA was suspended in 100% ethanol at 50 degrees Celsius and mixed for about hour after which the supernatant from this mixture was used. The drug was then diluted in S basal plus cholesterol plus bacteria OP50 such that the final concentration of ethanol on all plates was 1%. Wild type N2 C. elegans were obtained from the University of Minnesota Caenorhabditis Genetics Center. All assays were conducted on OP50 (CGCb) using 1× M9 OP50 worm food solution. Survival experiments were carried out in duplicate culture (2 cohorts, 50 worms each) at 25 degrees Celsius. Worms were exposed to the drugs at day 3 of life when set up in liquid culture with OP50 at 10^9 bacteria/ml. Worms were transferred daily for the first six days to remove progeny and to assess mortality. At day 10 and thereafter transfers were done 3 times per week. At each transfer, fresh drug was added to the desired concentration in a manner to achieve a final ethanol concentration of 1%.

C. elegans [2] = assay: Thermotolerance of C. elegans (35 degrees, SYTOX green fluorescence); type: in vivo
Procedure: The thermotolerance experiments were performed by workers at the Buck Institute on Aging in Novato, California under contract with the applicant. The workers at the Buck Institute performed these experiments under the direction and control of the applicant. The method used is that described in Sampayo et al., Aging Cell, 2: 319-326 (2003). In brief, 50 μl of the test compound dilution was added to a 10 ml week old agar plate spotted with 200 μl of concentrated E. coli OP50. The plates were set aside for 2-5 hours to allow the compounds to disperse. Age synchronous worm cultures of wide type (N2 strain) worms were prepared by hypochroride treatment of fertile adults and grown to three days of age at 20° C. The worms were washed off, resuspended in a small volume of S-basal and approximately 1000 worms were spotted onto each compound plate (˜1000 worms per plate) and the plates were incubated at 20° C. for 24 hours. Thermotolerance was measured using a Fluorskan Ascent fluorometer (Thermo Labsystems, MA). The fluorometer temperature was set to 35 °C and the fluorescence was measured in each well every 30 minutes over a 20-24 hour period, with a 20 millisecond integration time for each well. For SYTOX green fluorescence, the excitation wavelength was set to 485 nm and the emission wavelength at 538 nm. Analysis of individual fluorescence curves to determine the time of death was performed using the Fluoroskan Ascent software. Differences in thermotolerance were assessed using the Mantel-Haenszel Logrank test as implemented in Prism (GraphPad Software Inc.). Kaplan-Meier survival curves were generated using Prism survival analysis. […] C. elegans were maintained and handled as described above. The effect of a GGA analogue promoting thermotolerance was tested. The thermotolerance experiments were performed by workers at the Buck Institute on Aging in Novato, California under contract with the applicant. The workers at the Buck Institute performed these experiments under the direction and control of the applicant. […]

C. elegans [3] = assay: Cumulative percent loss of C. elegans cultured on agar plates over time; type: in vivo
Procedure: Another assay that can be used to measure lifespan extension in C. elegans is to measure the cumulative percent loss of C. elegans cultured on agar plates over time in the presence of GGA (LSG 711). C. elegans were maintained as described above. […] Lifespan extension in the presence of the class IIIa compound where R2 is acetone (LSG 712) was also measured in C. elegans using the cumulative percent loss of C. elegans over time as an assay. The methods described above for the testing of GGA were employed in the testing of LSG 712.

C. elegans [4] = assay: Age dependent accumulation of lipofuscin pigment in C. elegans (confocal fluorescence); type: in vivo; settings: for accumulation of lipofuscin: day 8, control about 65
Procedure: The effect of GGA on the age dependent accumulation of lipofuscin pigment was measured in C. elegans after treatment of worms with various concentrations of the drug. Wild type C. elegans were obtained from the University of Minnesota Caenorhabditis Genetics Center. A 250 mM stock of GGA was dissolved in ethanol and then diluted into 1× M9 OP50 worm food solution. Synchronized eggs were placed on plates containing no drug, 5 μM, 50 μM, or 500 μM GGA and allowed to hatch. On day 8, the worms were washed in 9M buffer and placed on a microscope slide. The amount of lipofuscin pigment was measured using a confocal microscope measuring fluorescence at 488 nm. Fluorescent scans were performed to quantify the amount of lipofuscin pigment. The quantification was normalized to the total area size of the worm in nm^2. The effect of LSG 712 on the age dependent accumulation of lipofuscin pigment was measured in C. elegans after treatment of worms with various concentrations of the drug. Synchronized eggs were placed on plates containing no drug and various concentrations of LSG 712 and allowed to hatch. On day 16, the worms were washed in 9M buffer and placed on a microscope slide. The amount of lipofuscin pigment was measured using a confocal microscope measuring fluorescence at 488 nm.

C. elegans [5] = assay: Lifespan of C. elegans under agar culture conditions; type: in vivo
Procedure: Additional studies to determine the effect of GGA on lifespan were performed using agar culture conditions. […] 100 μM GGA produces an 11% mean and 13% maximum percent increase in lifespan (Pvalue=0.039). The methods described above for the testing of GGA were employed in the testing of the class IIIa compound, LSG 712. […] 100 μM LSG 712 produces an 12% mean percent extension in lifespan (Pvalue=0.055).

[6] = Extrapolation of C. elegans survival data to human life expectancy and lifespan
From the text: The extension of life span in the nematode can also be directly measured. The inventor has discovered that feeding GGA to nematodes increased both the mean and maximum lifespan of the nematode by about 50 percent. The increase in lifespan found in the nematode is equivalent to an increase in human life expectancy from 75 years to about 112 years and human lifespan from 120 years to 180 years.

serum thioredoxin = assay: Serum thioredoxin levels in human volunteers given GGA; type: in vivo; settings: three 50 mg capsules per day, pre-treatment about 175 ng/ml
Procedure: To test the effect of GGA in providing oxidative stress protection in humans, 2 human volunteers were given three 50 mg capsules of GGA per day. Serum levels of thioredoxin, a protein important in protection from oxidative stress was measured at various time intervals as shown in FIG. 9.

[7] = extrapolated from C. elegans survival at 500 μM (FIG. 3)
[8] = feeding to nematodes, summary statement, concentration not given

CC(=O)CC/C=C(\C)CCC=C(C)C [GA, geranylacetone]
life expectancy (C. elegans [1]; 5 μM): 21 days
lifespan (C. elegans [1]; 5 μM): 32 days
life expectancy (C. elegans [1]; 50 μM): 21 days
lifespan (C. elegans [1]; 50 μM): 30 days

CC(=O)/C=C/C=C(\C)CC/C=C(\C)CC/C=C(\C)CCC=C(C)C [LSG 712]
mean increase in lifespan extension (thermotolerance) (C. elegans [2]; 100 μM): 19%
maximum percent increase in protection (C. elegans [3]; 50 μM): 25%
mean percent increase in protection (C. elegans [3]; 50 μM): 21%
maximum percent increase in protection (C. elegans [3]; 100 μM): 20%
mean percent increase in protection (C. elegans [3]; 100 μM): 12%
reduction in the amount of lipofuscin pigment (C. elegans [4]; day 16, compared with non-treated control worms, concentration not given): 50%
mean percent increase in lifespan (C. elegans [5]; 50 μM): 12%
mean percent increase in lifespan (C. elegans [5]; 100 μM): 12%

CC(=O)CC/C=C(\C)CC/C=C(\C)CC/C=C(\C)CCC=C(C)C [GGA, Geranylgeranyl acetone]
equivalent human life expectancy ([6]; equivalent of nematode lifespan increase, from 75 years): about 112 years
equivalent human lifespan ([6]; equivalent of nematode lifespan increase, from 120 years): 180 years
predicted human life expectancy [6, 7]: 85-100 years
predicted human life span [6, 7]: 120-159 years
maximum increase in lifespan extension (thermotolerance) (C. elegans [2]; 500 μM): 27%
mean increase in lifespan extension (thermotolerance) (C. elegans [2]; 500 μM): 29%
maximum percent increase in protection (C. elegans [3]; 50 μM): −7%
mean percent increase in protection (C. elegans [3]; 50 μM): −4%
maximum percent increase in protection (C. elegans [3]; 100 μM): 12%
mean percent increase in protection (C. elegans [3]; 100 μM): 7%
life expectancy (C. elegans [1]; 5 μM): 21 days
lifespan (C. elegans [1]; 5 μM): 33 days
life expectancy (C. elegans [1]; 50 μM): 23 days
lifespan (C. elegans [1]; 50 μM): 35 days
life expectancy (C. elegans [1]; 500 μM): 23 days
lifespan (C. elegans [1]; 500 μM): 37 days
increase of maximum lifespan of the nematode (C. elegans [1]; [8]): about 50%
increase of mean lifespan of the nematode (C. elegans [1]; [8]): about 50%
accumulation of lipofuscin (C. elegans [4]; 5 μM): about 15 autofluorescent intensity/area units
accumulation of lipofuscin (C. elegans [4]; 50 μM): under 5 autofluorescent intensity/area units
accumulation of lipofuscin (C. elegans [4]; 500 μM): under 10 autofluorescent intensity/area units
lipofuscin accumulation by confocal fluorescence microscopy (FIG. 5) (C. elegans [4]; qualitative): reduction of lipofuscin accumulation
maximum percent increase in lifespan (C. elegans [5]; 50 μM): 8%
mean percent increase in lifespan (C. elegans [5]; 50 μM): 11%
maximum percent increase in lifespan (C. elegans [5]; 100 μM): 13%
mean percent increase in lifespan (C. elegans [5]; 100 μM): 11%
serum thioredoxin (serum thioredoxin; one volunteer, after approximately 32 days): about 275 ng/ml
serum thioredoxin (serum thioredoxin; second volunteer): about 425 ng/ml
